Experimental data taken from ChEMBL document CHEMBL6096628, “Discovery of a Highly Potent and Selective BRD9 PROTAC Degrader Based on E3 Binder Investigation for the Treatment of Hematological Tumors” (J Med Chem, 2024).
pIC50: −log10 of the molar value. Activity calls are given as the source filed them. The calls are words filed in the database; no cut-off is given here.

How the values were obtained:
[1] = target: T1, Protein cereblon/Bromodomain-containing protein 9 (Homo sapiens, UniProt Q9H8M2+Q96SW2); experiment: PROTAC activity at CRBN/BRD9 in human MV4-11 cells assessed as induction of BRD9 degradation at 10 nM by Western blot analysis relative to control; assay type: cell-based
Target sequence in this assay (Q96SW2 whole entry, looked up): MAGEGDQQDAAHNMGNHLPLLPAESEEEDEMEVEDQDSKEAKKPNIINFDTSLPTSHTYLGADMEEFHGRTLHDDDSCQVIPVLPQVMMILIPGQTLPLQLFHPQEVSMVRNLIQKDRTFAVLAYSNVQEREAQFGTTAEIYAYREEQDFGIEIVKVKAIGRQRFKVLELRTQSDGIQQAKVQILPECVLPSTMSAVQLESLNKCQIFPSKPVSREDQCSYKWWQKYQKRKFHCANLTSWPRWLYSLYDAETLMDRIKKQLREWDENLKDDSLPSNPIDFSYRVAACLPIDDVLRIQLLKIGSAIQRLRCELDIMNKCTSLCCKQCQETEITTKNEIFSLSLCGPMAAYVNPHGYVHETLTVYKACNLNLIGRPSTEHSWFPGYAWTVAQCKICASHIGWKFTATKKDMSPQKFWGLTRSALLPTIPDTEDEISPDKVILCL
Target sequence in this assay (Q9H8M2 whole entry, looked up): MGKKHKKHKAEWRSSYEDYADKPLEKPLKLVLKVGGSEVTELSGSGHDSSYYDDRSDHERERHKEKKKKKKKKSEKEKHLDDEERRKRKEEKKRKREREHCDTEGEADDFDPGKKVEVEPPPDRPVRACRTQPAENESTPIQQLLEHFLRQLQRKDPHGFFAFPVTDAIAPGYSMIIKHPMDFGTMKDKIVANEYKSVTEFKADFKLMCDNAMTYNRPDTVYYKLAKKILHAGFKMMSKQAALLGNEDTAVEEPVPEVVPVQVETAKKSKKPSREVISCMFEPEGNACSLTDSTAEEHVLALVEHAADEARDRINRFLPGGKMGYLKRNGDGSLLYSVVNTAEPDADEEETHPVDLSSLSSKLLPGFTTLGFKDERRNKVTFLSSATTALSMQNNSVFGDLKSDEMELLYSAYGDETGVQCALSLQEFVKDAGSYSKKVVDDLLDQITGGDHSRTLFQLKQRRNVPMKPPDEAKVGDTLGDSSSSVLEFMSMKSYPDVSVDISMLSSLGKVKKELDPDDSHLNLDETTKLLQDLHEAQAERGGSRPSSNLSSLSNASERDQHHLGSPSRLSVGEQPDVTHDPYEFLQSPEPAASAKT

[2] = target: T1, Protein cereblon/Bromodomain-containing protein 9; experiment: PROTAC activity at CRBN/BRD9 in human MV4-11 cells assessed as induction of BRD9 degradation at 1 nM by Western blot analysis relative to control; assay type: cell-based
Target sequence in this assay (Q96SW2 whole entry, looked up): as the sequence (Q96SW2 whole entry, looked up) above
Target sequence in this assay (Q9H8M2 whole entry, looked up): as the sequence (Q9H8M2 whole entry, looked up) above

[3] = target: T1, Protein cereblon/Bromodomain-containing protein 9; experiment: PROTAC activity at CRBN/BRD9 in human MV4-11 cells assessed as induction of BRD9 degradation at 100 nM by Western blot analysis relative to control; assay type: cell-based
Target sequence in this assay (Q96SW2 whole entry, looked up): as the sequence (Q96SW2 whole entry, looked up) above
Target sequence in this assay (Q9H8M2 whole entry, looked up): as the sequence (Q9H8M2 whole entry, looked up) above

MV4-11 [4] = experiment: Antiproliferative activity against human MV4-11 cells assessed as inhibition of cell growth incubated for 7 days by MTS reagent based assay; assay type: functional; settings: MV4-11, 168 h
MV4-11 [5] = experiment: Antiproliferative activity against CRBN knockout human MV4-11 cells assessed as inhibition of cell growth incubated for 7 days by MTS reagent based assay; assay type: functional; settings: MV4-11, 168 h
SU-DHL-6 = experiment: Antiproliferative activity against human SU-DHL-6 cells assessed as inhibition of cell growth incubated for 7 days by MTS reagent based assay; assay type: functional; settings: SU-DHL-6, 168 h
SU-DHL-2 = experiment: Antiproliferative activity against human SU-DHL-2 cells assessed as inhibition of cell growth incubated for 7 days by MTS reagent based assay; assay type: functional; settings: SU-DHL-2, 168 h
OCI-Ly10 = experiment: Antiproliferative activity against human OCI-Ly10 cells assessed as inhibition of cell growth incubated for 7 days by MTS reagent based assay; assay type: functional; settings: OCI-Ly10, 168 h
Kasumi 1 = experiment: Antiproliferative activity against human Kasumi 1 cells assessed as inhibition of cell growth incubated for 7 days by MTS reagent based assay; assay type: functional; settings: Kasumi 1, 168 h
MOLM-13 = experiment: Antiproliferative activity against human MOLM-13 cells assessed as inhibition of cell growth incubated for 7 days by MTS reagent based assay; assay type: functional; settings: MOLM-13, 168 h
U-937 = experiment: Antiproliferative activity against human U-937 cells assessed as inhibition of cell growth incubated for 7 days by MTS reagent based assay; assay type: functional; settings: time 7.0 day
[6] = target: T1, Protein cereblon/Bromodomain-containing protein 9; experiment: PROTAC activity at CRBN/BRD9 (unknown origin); assay type: protein assay
Target sequence in this assay (Q9H8M2 whole entry): as the sequence (Q9H8M2 whole entry, looked up) above
Target sequence in this assay (Q96SW2 whole entry): as the sequence (Q96SW2 whole entry, looked up) above

Row | Structure (SMILES) | Activity [1] | Activity [2] | Activity [3] | pIC50 (MV4-11 [4]) | pIC50 (MV4-11 [5]) | pIC50 (SU-DHL-6) | pIC50 (SU-DHL-2) | pIC50 (OCI-Ly10) | pIC50 (MOLM-13) | DC50 [6] | pIC50 (Kasumi 1) | Activity (U-937)
1 | COc1cc(-c2cn(C)c(=O)c3ccccc23)cc(OC)c1CN1CCC(c2ccc3c4c(cccc24)C(=O)N3C2CCC(=O)NC2=O)CC1 (centres undefined) | 80.5% | 79.5% | 50.5% | 8.61 | < 5.30 |  |  |  |  |  |  | 
2 | COc1cc(-c2cn(C)c(=O)c(C)c2C)cc(OC)c1CN1CC[C@H](N2CCN(c3ccc(N[C@H]4CCC(=O)NC4=O)cc3F)CC2)C(F)(F)C1 (racemic) [SENDEGOBRESIB] | 74.9% | 6.9% | 93.9% | 7.45 | < 5.30 | 5.49 | 6.49 | 5.91 | 7.22 | 3 nM | 7.84 | Active; Weak Inhibitory Effect Observed
3 | COc1cc(-c2cn(C)c(=O)c3ccccc23)cc(OC)c1CN1CCN(c2ccc(NC3CCC(=O)NC3=O)cc2F)CC1 (centres undefined) | 74.7% | 34% | 86% | 7.75 | < 5.30 |  |  |  |  |  |  | 
4 | COc1cc(-c2cn(C)c(=O)c3ccccc23)cc(OC)c1CN1CCN(c2ccc(OC3CCC(=O)NC3=O)cc2)CC1 (centres undefined) | 60.5% | 32% | 80.5% | 5.44 | < 5.30 |  |  |  |  |  |  | 
5 | CCn1cc(-c2cccc(C(F)(F)F)c2)c2sc(C(=N)NC3CCS(=O)(=O)CC3)cc2c1=O |  |  |  | 6.41 |  | 5.92 | 5.80 | 5.57 | 5.91 |  | 6.34 | Active; Weak Inhibitory Effect Observed
6 | COc1cc(-c2cn(C)c(=O)c3ccccc23)cc(OC)c1CN1CCN(c2ccc(C3CCC(=O)NC3=O)cc2)CC1 (centres undefined) | 87.3% | 65% | 83.7% | 6.89 | < 5.30 |  |  |  |  |  |  | 
7 | COc1cc(-c2cn(C)c(=O)c3ccccc23)cc(OC)c1CN1CCN(c2ccc(C(=O)NC3CCC(=O)NC3=O)cn2)CC1 (centres undefined) | 39.3% | 33.3% | 50% | 5.60 | < 5.30 |  |  |  |  |  |  | 
8 | COc1cc(-c2cn(C)c(=O)c3ccccc23)cc(OC)c1CN1CCC(CN2CCN(c3ccc(C(=O)NC4CCC(=O)NC4=O)nc3)CC2)CC1 (centres undefined) | 95.5% | 29.5% | 92% | 8.27 | < 5.30 |  |  |  |  |  |  | 
9 | COc1cc(-c2cn(C)c(=O)c3ccccc23)cc(OC)c1CN1CCC(CN2CCN(c3ccc(NC4CCC(=O)NC4=O)cc3)CC2)CC1 (centres undefined) | 96.5% | 69.5% | 97.5% | 8.25 | < 5.30 |  |  |  |  |  |  | 
10 | COc1cc(-c2cn(C)c(=O)c3ccccc23)cc(OC)c1CN1CCN(c2ccc(C(=O)NC3CCC(=O)NC3=O)cc2)CC1 (centres undefined) | 32.3% | 26.7% | 35.7% | 5.50 | < 5.30 |  |  |  |  |  |  | 
11 | COc1cc(-c2cn(C)c(=O)c3ccccc23)cc(OC)c1CN1CCC(CN2CCN(c3ccc(NC4CCC(=O)NC4=O)cn3)CC2)CC1 (centres undefined) | 85.5% | 56% | 86.5% | 7.92 | < 5.30 |  |  |  |  |  |  | 

Now from value to compound, other results behind:

Row | Activity [1] | Activity [2] | Activity [3] | pIC50 (MV4-11 [4]) | pIC50 (MV4-11 [5]) | pIC50 (SU-DHL-6) | pIC50 (SU-DHL-2) | pIC50 (OCI-Ly10) | pIC50 (MOLM-13) | DC50 [6] | Structure (SMILES) | pIC50 (Kasumi 1) | Activity (U-937)
12 | 89% | 13% | 98% | 7.33 | < 5.30 |  |  |  |  |  | COc1cc(-c2cn(C)c(=O)c3ccccc23)cc(OC)c1CN1CCC(CN2CCN(c3ccc(OC4CCC(=O)NC4=O)cc3)CC2)CC1 (centres undefined) |  | 
13 | 66% | 45.5% | 80.5% | 6.37 | < 5.30 |  |  |  |  |  | COc1cc(-c2cn(C)c(=O)c3ccccc23)cc(OC)c1CN1CCN(c2ccc(NC3CCC(=O)NC3=O)cc2)CC1 (centres undefined) |  | 
14 | 46.7% | 41.7% | 59.3% | 5.78 | < 5.30 |  |  |  |  |  | COc1cc(-c2cn(C)c(=O)c3ccccc23)cc(OC)c1CN1CCN(c2ccc(NC3CCC(=O)NC3=O)cn2)CC1 (centres undefined) |  | 
15 | 8% | 12% | 25% | 6.16 | < 5.30 |  |  |  |  |  | COc1cc(-c2cn(C)c(=O)c3ccccc23)cc(OC)c1CN1CCN(c2ccc(N3CCC(=O)NC3=O)cc2)CC1 |  | 
16 | 21.3% | 18.3% | 65% | 5.35 | < 5.30 |  |  |  |  |  | COc1cc(-c2cn(C)c(=O)c3ccccc23)cc(OC)c1CN1CCN(c2ccc(C(=O)NC3CCC(=O)NC3=O)nc2)CC1 (centres undefined) |  | 
